How the values were obtained:
[1] = system: T98G glioblastoma cells; test: MTT cytotoxicity assay, T98G; type: cell-based; settings: Homo sapiens, 72 h incubation, mean ± SEM of three experiments, read-out: Cytotoxicity (GI50) against T98G
In short: (§1)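 Optical density at 450 nm after MTT conversion served as the viability read-out, with GI50 taken as the concentration that halves OD relative to untreated controls. Cultures in RPMI-1640 plus 10% calf serum were treated for 72 h at 37 °C; doxorubicin was the positive control.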

[2] = system: DU-145 prostate cancer cells; test: MTT cytotoxicity assay, DU-145; type: cell-based, human; settings: Homo sapiens, DU-145, 72 h, 72 h incubation, mean ± SEM of three experiments, read-out: Cytotoxicity (GI50) against DU-145
In short: as §1

[3] = system: SNB-19 cells; test: Cell cycle analysis by flow cytometry (Hoechst 33342), SNB-19; type: cell-based, human; settings: SNB-19, treated at GI50 concentration, 24 h
Description: Due to the fact that the implementation of the antitumor potential of the currently existing antitumor agents is carried out by acting on various biological targets, at the next stage we performed the cell cycle analysis and DNA synthesis. Cell cycle analysis of 1-hydroxy-4-phenyl-9,10-anthraquinone 13, 1-hydroxy-4-(2,3-dimethoxyphenyl)-9,10- anthraquinone 16, 1-hydroxy-4-(furan-3-yl)-9,10-anthraquinone 23 and 1-hydroxy- 2-(2,3-dimethoxyphenyl)-9,10-anthraquinone 28 against SNB-19 cells for 24 h produced interesting results. After examining the data for compounds 13 and 16 (Table 3, Figure 4C,D), good number of cells are distributed in S phase, i.e., initiated DNA replication mechanism and also in G0/G1 phase, i.e., initial phase of cell cycle. G1 and G2 are the growth phases in cell cycle analysis, whereas S phase is a synthetic phase wherein DNA replication and DNA synthesis take place. The 2-aryl substituted compound 28 initiated the G0/G1 phase in analogy with doxorubicin and mitomycin. […] Further, compounds play a vital role in controlling the regulation of Sub-G1 and G2/M phases. Some difference in the mechanism of operation of 4-aryl substituted 13,16 and 2-aryl substituted 9,10-anthraquinones 28 has been observed during the progression of cell cycle like: S phase was highly disturbed by 13; G0/G1 phase was highly disturbed by 28. […] This observation can be explained by the influence on the cell repair systems that respond to the intercalation of compounds in DNA. […] Further, mitoxantrone promotes the arrest of S phase of cell cycle.
For cell cycle analysis cells were seeded in 6-well plates (30,000 per plate) and incubate for adhesion for 24 h. […] Cells were washed with PBS twice, harvested, pelleted and resuspended in 0.5 mL of PBS. For staining the Hoechst 33342 Ready Flow Reagent (Invitrogen) was used according to the instruction. CytoFLEX flow cytometer (Beckman Coulter) was used for analysis. The results are presented as a percentage of cell population standing in different stages of the cell cycle.

O=C1c2ccccc2C(=O)c2c(-c3ccccc3)ccc(O)c21 [Compound 13, 1-Hydroxy-4-phenylanthracene-9,10-dione]
GI50 [1]: 14.1 ± 0.65 µM
GI50 [2]: 1.1 ± 0.19 µM
Population (% Cell Distribution) G0/G1 [3]: 29.0%
Population (% Cell Distribution) G2/M [3]: 13.9%
Population (% Cell Distribution) S [3]: 48.5%
Population (% Cell Distribution) Sub-G1 [3]: 4.0%
Population (% Cell Distribution) Super-G2 [3]: 4.6%

COc1cccc(-c2ccc(O)c3c2C(=O)c2ccccc2C3=O)c1OC [Compound 16, 1-(2,3-Dimethoxyphenyl)-4-hydroxyanthracene-9,10-dione]
GI50 [1]: 25.1 ± 1.04 µM
GI50 [2]: 5.4 ± 0.17 µM
Population (% Cell Distribution) G0/G1 [3]: 36.6%
Population (% Cell Distribution) G2/M [3]: 18.6%
Population (% Cell Distribution) S [3]: 34.3%
Population (% Cell Distribution) Sub-G1 [3]: 3.0%
Population (% Cell Distribution) Super-G2 [3]: 7.6%
